# Experimental data: patent publication US9376387B2 (priority 2013, dated 2016)
# Where two headings read alike, the source gives them in different places.
# Tests used:
# [1] = molecular target: T1, hAChE (human erythrocyte membranes as a AChE source) (Homo sapiens, UniProt P22303); test: acetylcholinesterase (AChE) activity, modified Ellman method; format: biochemical; conditions: acetylthiocholine iodide substrate, pH=7.4
# T1 construct: human erythrocyte membranes as a AChE source; from tissue; host or cells: human erythrocyte membranes
# EqBuChE = EqBuChE (Equus caballus, UniProt P81908); test: biochemical
# [2] = hAChE IC50, modified Ellman method
# T1 sequence (P22303 32-617 isoform P22303-2 limits assumed): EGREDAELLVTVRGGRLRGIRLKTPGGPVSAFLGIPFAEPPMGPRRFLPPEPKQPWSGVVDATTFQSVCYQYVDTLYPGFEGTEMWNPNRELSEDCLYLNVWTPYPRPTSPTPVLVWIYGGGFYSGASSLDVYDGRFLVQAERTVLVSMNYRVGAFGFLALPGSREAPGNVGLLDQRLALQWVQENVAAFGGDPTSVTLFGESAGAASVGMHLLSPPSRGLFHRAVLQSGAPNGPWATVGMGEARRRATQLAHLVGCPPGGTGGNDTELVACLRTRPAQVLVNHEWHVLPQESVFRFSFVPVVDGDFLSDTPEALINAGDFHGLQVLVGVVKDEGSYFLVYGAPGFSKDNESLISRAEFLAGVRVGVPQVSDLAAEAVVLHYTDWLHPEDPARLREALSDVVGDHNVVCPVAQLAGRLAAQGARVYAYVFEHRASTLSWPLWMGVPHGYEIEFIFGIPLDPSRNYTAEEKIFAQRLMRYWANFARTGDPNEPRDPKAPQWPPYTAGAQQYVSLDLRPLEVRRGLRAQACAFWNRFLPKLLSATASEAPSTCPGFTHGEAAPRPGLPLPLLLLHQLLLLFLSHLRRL
# Sequence of EqBuChE (P81908 whole entry): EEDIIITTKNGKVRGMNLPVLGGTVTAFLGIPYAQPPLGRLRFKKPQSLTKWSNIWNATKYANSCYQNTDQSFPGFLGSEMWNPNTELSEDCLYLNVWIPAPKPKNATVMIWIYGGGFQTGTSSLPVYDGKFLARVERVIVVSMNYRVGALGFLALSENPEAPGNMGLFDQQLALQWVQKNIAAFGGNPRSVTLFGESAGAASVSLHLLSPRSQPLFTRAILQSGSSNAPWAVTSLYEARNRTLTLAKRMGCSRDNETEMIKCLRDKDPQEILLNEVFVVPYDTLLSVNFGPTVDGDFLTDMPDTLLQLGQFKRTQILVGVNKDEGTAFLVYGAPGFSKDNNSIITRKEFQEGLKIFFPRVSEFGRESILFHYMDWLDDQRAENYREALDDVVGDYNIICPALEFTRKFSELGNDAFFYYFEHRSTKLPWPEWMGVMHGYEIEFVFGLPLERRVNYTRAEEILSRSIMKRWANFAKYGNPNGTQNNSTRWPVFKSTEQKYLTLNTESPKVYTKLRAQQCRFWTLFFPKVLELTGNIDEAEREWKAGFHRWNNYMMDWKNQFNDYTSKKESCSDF
Compound,"IC50 [1, 2] [nM]",IC50 (EqBuChE; EqBuChE IC50) [nM],"IC50 ([1]; modified Ellman method, read-out: hAChE IC50) [nM]",IC50 (EqBuChE; read-out: EqBuChE IC50) [nM]
"COc1ccc2c(c1)CCC(Cc1cc[n+](Cc3cccc(C)c3)cc1Br)C2=O (centres unmarked) [Compound 118, 2-[[3-bromo-1-(m-tolylmethyl)pyridin-1-ium-4-yl]methyl]-6-methoxy-tetralin-1-one bromide]",16.5,664,,
"COc1cc2c(cc1OC)C(=O)C(Cc1cc[n+](Cc3cccc(C)c3)cc1Br)C2 (centres unmarked) [Compound 146, 2-[[3-bromo-1-(m-tolylmethyl)pyridin-1-ium-4-yl]methyl]-5,6-dimethoxy-indan-1-one bromide]",0.465,3860,,
"COc1cc2c(cc1OC)C(=O)C(Cc1cc[n+](Cc3ccccc3)cc1F)CC2 (centres unmarked) [Compound 133, 2[(1-benzyl-3-fluoro-pyridin-1-ium-4-yl)methyl]-6,7-dimethoxy-tetralin-1-one bromide]",9.1,508,,
"CC(=O)c1c[n+](Cc2ccccc2C)ccc1CC1Cc2cc3c(cc2C1=O)OCO3 (centres unmarked) [Compound 139, 6-[[3-acetyl-1-(o-tolylmethyl)pyridin-1-ium-4-yl]methyl]-5,6-dihydrocyclopenta[f][1,3]benzodioxol-7-one bromide]",60,1620,,
"COc1cc2c(cc1OC)C(=O)C(Cc1cc[n+](Cc3ccccc3)cc1Br)C2 (centres unmarked) [Compound 145, 2-[(1-benzyl-3-bromo-pyridin-1-ium-4-yl)methyl]-5,6-dimethoxy-indan-1-one bromide]",,,0.36,1790
"COc1ccc2c(c1)CCC(Cc1cc[n+](Cc3ccccc3C)cc1C(C)=O)C2=O (centres unmarked) [Compound 121, 2-[[3-acetyl-1-(o-tolylmethyl)pyridin-1-ium-4-yl]methyl]-6-methoxy-tetralin-1-one bromide]",10,433,,
"COc1ccc2c(c1)CCC(Cc1cc[n+](Cc3ccccc3)cc1C(C)=O)C2=O (centres unmarked) [Compound 82, 2-[(3-acetyl-1-benzyl-pyridin-1-ium-4-yl)methyl]-6-methoxy-tetralin-1-one chloride]",76,371,,
"COc1ccc2c(c1)CCC(Cc1cc[n+](Cc3cccc(F)c3)cc1C(C)=O)C2=O (centres unmarked) [Compound 128, 2-[[3-acetyl-1-[(3-fluorophenyl)methyl]pyridin-1-ium-4-yl]methyl]-6-methoxy-tetralin-1-one bromide]",55,412,,
"CC(=O)C1=CN(Cc2ccccc2C)C=CC1CC1Cc2cc(C)c(C)cc2C1=O (centres unmarked) [Compound 166, 2-[[3-acetyl-1-(o-tolylmethyl)-4H-pyridin-4-yl]methyl]-5,6-dimethyl-indan-1-one]",653,1260,,
"COc1ccc2c(c1)CCC(Cc1cc[n+](Cc3ccccc3)cc1C(C)=O)C2=O (centres unmarked) [Compound 119, 2-[(3-acetyl-1-benzyl-pyridin-1-ium-4-yl)methyl]-6-methoxy-tetralin-1-one bromide]",71,412,,
"COc1cc2c(cc1OC)C(=O)C(CC1C=CN(Cc3cccc(Cl)c3)C=C1C(C)=O)C2 (centres unmarked) [Compound 77, 2-[[3-acetyl-1-[(3-chlorophenyl)methyl]-4H-pyridin-4-yl]methyl]-5,6-dimethoxy-indan-1-one]",543,13500,,
"COc1ccc2c(c1)CCC(Cc1cc[n+](Cc3cccc(C)c3)cc1C(C)=O)C2=O (centres unmarked) [Compound 120, 2-[[3-acetyl-1-(m-tolylmethyl)pyridin-1-ium-4-yl]methyl]-6-methoxy-tetralin-1-one bromide]",110,596,,
"COc1cc2c(cc1OC)C(=O)C(CC1C=CN(Cc3ccccc3)C=C1C(C)=O)CC2 (centres unmarked) [Compound 162, 2-[(3-acetyl-1-benzyl-4H-pyridin-4-yl)methyl]-6,7-dimethoxy-tetralin-1-one]",415,3970,,
"COc1ccc2c(c1)CCC(Cc1cc[n+](Cc3ccccc3F)cc1C(C)=O)C2=O (centres unmarked) [Compound 127, 2-[[3-acetyl-1-[(2-fluorophenyl)methyl]pyridin-1-ium-4-yl]methyl]-6-methoxy-tetralin-1-one bromide]",43,489,,
"COc1ccc2c(c1)CC(Cc1cc[n+](Cc3ccccc3C)cc1C(C)=O)C2=O (centres unmarked) [Compound 138, 2-[[3-acetyl-1-(o-tolylmethyl)pyridin-1-ium-4-yl]methyl]-5-methoxy-indan-1-one bromide]",30,2990,,
"COc1ccc2c(c1)CCC(Cc1cc[n+](Cc3ccc(Cl)cc3)cc1C(C)=O)C2=O (centres unmarked) [Compound 131, 2-[[3-acetyl-1-[(4-chlorophenyl)methyl]pyridin-1-ium-4-yl]methyl]-6-methoxy-tetralin-1-one bromide]",568,6090,,
